Test [1] has as its system pMSCV-F-del Casp9-IRES-GFP transfected HEK293 cells (iCasp9). Kind of test: Caspase 3/7 Assay after AP1903 stimulation of iCasp9-transfected cells. The test is classed as cell-based, human. The settings on record: compared to ethanol stimulated cells, 0, 0.1, 1, 10 nmol/l tested, 24 h end point. From the text: Because repopulated rat livers with human iPS-Heps can be reconstituted with both rodent cells and human cells, systems to maximize the human component to 100% of the livers and to purify human cells after perfusion/isolation of livers are beneficial. Suicide systems can be designed to potentiate these processes by efficiently inducing apoptosis in transduce cells. An inducible caspase-9 (iCasp9), encoded by a suicide gene engineered from human caspase-9, was incorporated. […]
HEK293 cells are transfected with pMSCV-F-del-Casp9_IRES-GFP (Addgene). • To assess transfection efficiency, cells are co-transfected with a TagRFP control plasmid ( 1/10 of total amount of DNA). • On day 3 transfected cells and negative control are monitored, counted and seeded (1E04 cells/96-well) for Caspase 3/7 Assay (Promega; G8091) Per Transfection/Negative Control cells were seeded as follows: • Per concentration small molecule (chemical inducer of dimerization) AP1903 (ApexBio) two wells, the same amount for negative control. […] T=0 h was measured immediately and T=24 h is measured as end point. (FIG. 13) • iCasp9-IRES-GFP construct is cloned with the rat albumin promoter pEAlb123. • iCasp9 expression (mRNA) is quantified in H4-II-E-C3 by qRT-PCR. […]

Test [2] deals with Untransfected HEK293 cells. Kind of test: Caspase 3/7 Assay after AP1903 stimulation of untransfected control cells. The test is classed as cell-based, human. The settings on record: untransfected HEK293 cells treated with AP1903. The protocol: HEK293 cells are transfected with pMSCV-F-del-Casp9_IRES-GFP (Addgene). • To assess transfection efficiency, cells are co-transfected with a TagRFP control plasmid ( 1/10 of total amount of DNA). • On day 3 transfected cells and negative control are monitored, counted and seeded (1E04 cells/96-well) for Caspase 3/7 Assay (Promega; G8091) Per Transfection/Negative Control cells were seeded as follows: • Per concentration small molecule (chemical inducer of dimerization) AP1903 (ApexBio) two wells, the same amount for negative control. For shuttle control, also wells per concentration are seeded. • On day 4, stimulation with AP1903 starts (0; 0,1; 1; 10 nmol/1). Shuttle control includes cells treated with ethanol only. T=0 h was measured immediately and T=24 h is measured as end point. (FIG. 13) • iCasp9-IRES-GFP construct is cloned with the rat albumin promoter pEAlb123. • iCasp9 expression (mRNA) is quantified in H4-II-E-C3 by qRT-PCR. Cells are transfected with plasmids pEAlb123-iCasp9-IRES-GFP and pcDNA3-CMV-eGFP (positive control). • Cells are harvested and RNA is isolated. iCASP9 and eGFP-specific PCR primers are used to measure expression (FIG. 14).

As for `CC[C@@H](C(=O)N1CCCC[C@H]1C(=O)O[C@@H](CCc1ccc(OC)c(OC)c1)c1cccc(OCC(=O)NCCNC(=O)COc2cccc([C@@H](CCc3ccc(OC)c(OC)c3)OC(=O)[C@@H]3CCCCN3C(=O)[C@H](CC)c3cc(OC)c(OC)c(OC)c3)c2)c1)c1cc(OC)c(OC)c(OC)c1` [AP1903], the “AP1903 concentration giving maximum effect in Caspase 3/7 Assay” value in test [1] is 1 nmol/L. In addition, the “effect of AP1903 in Caspase 3/7 Assay” value in test [2] is “did not show any effect”.

For the origin of these results see patent publication US11530388B2, “Methods of engineering human induced pluripotent stem cells to produce liver tissue” (University of Pittsburgh—Of the Commonwealth System of …, priority 2017, dated 2022).
